Literature values in patent US10420763B2, “Sublingual apomorphine” (Sunovion Pharmaceuticals Inc., priority 2009, dated 2019).

System: Parkinson's patients

CN1CCc2cccc3c2[C@H]1Cc1ccc(O)c(O)c1-3 [apomorphine]
adverse effects of intranasal administration (intranasal administration (Koller et al. 2004)): transient nasal blockage, burning sensation and swollen nose and lips | common side effect of subcutaneous injection (subcutaneous injection (Prietz et al. 1998)): development of nodules, which often become infected | adverse effects of sublingual tablets (sublingual administration of apomorphine tablets, prolonged use (Deffond et al. 1993)): severe stomatitis on prolonged use with buccal mucosal ulceration in half the patients treated
